Measured values reported in patent US7314719B2, “Method for increasing productivity of secondary metabolite by conferring drug-resistant mutations” (priority 2001, dated 2008).
Read-outs that look alike come from different tables or passages of the source.

Assays:
[1] = system: S. coelicolor 1147 and drug-resistant mutants; experiment: Resistance level to antibiotics on GYM agar (Table 2); assay type: cell-based, Streptomyces coelicolor; conditions: 4 days on GYM agar
[2] = system: Bacillus cereus No. 2045 and mutants; experiment: Resistance level to gentamicin and rifampicin (Table 4); assay type: cell-based
Protocol: A gentamicin-resistant mutant and a rifampicin-and gentamicin-resistant mutant of Bacillus cereus No. 2045 were produced according to a similar manner to that of Examples 1, 2 or 3. Those mutants were precultured in bouillon medium for 10 h. Cells (0.1 ml) were inoculated into 5 ml of production medium consisting of (per liter) 20 g of polypeptone, 20 g of corn steep liquor, and 5 g of NaCl (adjusted to pH 7.5 with NaOH) for 2 days at 30° C.

[3] = system: S. coelicolor 1147 (wild type) and mutants S-1, SG-1, SG-2; experiment: MIC of antibiotics on GYM agar (screening of drug-resistant mutants); assay type: cell-based, Streptomyces coelicolor; conditions: for Concentration at which growth was inhibited completely: GYM agar; for MIC: 2 days of incubation on GYM agar
Protocol: The spontaneous streptomycin, gentamicin or rifampicin-resistant mutants of S. coelicolor were obtained as the colonies that grew within 7 days at 30° C. after spores (or cells) were spread on GYM agar (composition is the same as the above GYM agar) containing 5 μg streptomycin per ml or 1.0 μg of gentamicin per ml or 200 μg of rifampicin per ml, respectively (Growth of parental strain was inhibited completely with 1 μg of streptomycin per ml, 0.1 μg of gentamicin per ml or 10 μg of rifampicin per ml). The single colonies grew on screening plates were picked out and inoculated to R4 agar containing 1% of glucose, 0.1% of yeast extract, 0.001% of Casamino Acids, 0.3% of proline, 1% of MgCl2·6H2O, 0.4% of CaCl2·2H2O, 0.002% of K2SO4, 0.56% of TES [N-Tris (hydroxymethyl)methyl-2-aminoethanesulfonic acid], 0.2% of trace elements solution (as described for R2YE medium) and 2% of agar (before adding agar, adjusted to pH 7.2). The R4 plates were incubated at 30° C. for 6 days and the amount of blue pigment actinorhodin produced was compared among wild type strain and mutants, and selected the over-producers among the mutants. Then, the mutants with over-producing actinorhodin were inoculated into R4 liquid medium (composition is the same as the R4 agar, but no agar) in 25 ml of test tubes containing 5 ml medium on an orbital shaker at 30° C., 350 rpm. After incubation for 6 days, 1 ml culture samples were taken and adjusted pH to 8.0. After centrifugation at 1100 g for 5 min., actinorhodin production in supernatants was assayed by measurement of the optical density of supernatants at 633 nm. The highest productivity detected reached 1.6-fold for gentamicin-resistant mutants, 1.8-fold for streptomycin-resistant mutants and 3.0-fold for rifampicin-resistant mutants. The frequencies for such high producers were 5%, 6% and 10%, respectively (see Table 1 and FIG. 7).
The spontaneous geneticin, gentamicin or rifampicin-resistant mutants of S-1 were obtained as colonies that grew on GYM agar containing 2.5 μg of geneticin per ml or 2.5 μg of gentamicin per ml or 200 μg of rifampicin per ml. (Growth of S-1 strain was inhibited completely with 0.5 μg of geneticin per ml, 0.5 μg of gentamicin per ml or 10 μg of rifampicin per ml.). Actinorhodin productivity of mutants was examined using R4 agar plates and R4 liquid medium.
The spontaneous rifampicin-resistant mutants of SG-1 and SG-2 strains were obtained as colonies that grew on GYM agar containing 200 μg of rifampicin per ml.

[4] = system: Streptomyces lividans 66 and mutants; experiment: Resistance level to rifampicin and streptomycin (Table 5); assay type: cell-based
Excerpt: A rifampicin-resistant mutant and a streptomycin-and rifampicin-resistant mutant of Streptomyces lividans 66 were produced according to a similar manner to that of Examples 1, 2 or 3, and the actinorhodin production was estimated.

[5] = cited from earlier work
[6] = strain B. cereus No. 2045, wild-type
[7] = parental strain (S. coelicolor wild type)
[8] = Streptomyces coelicolor, 48 h, strain S. coelicolor 1147 (wild type), read-out: MIC
[9] = strain S. lividans 66, wild-type

## gentamicin
[1]; strain 1147 (wild type)
  Resistance level: 0.1 µg/mL
[1]; strain G-1
  Resistance level: 0.3 µg/mL
[1]; strain G-2
  Resistance level: 0.3 µg/mL
[1]; strain G-3
  Resistance level: 0.3 µg/mL
[1]; strain SG-1
  Resistance level: 0.3 µg/mL
[1]; strain SG-2
  Resistance level: 0.3 µg/mL
[1]; strain SG-3
  Resistance level: 0.3 µg/mL
[1]; strain SGR-1
  Resistance level: 0.2 µg/mL
[1]; strain SGR-2
  Resistance level: 0.2 µg/mL
[1]; strain SGR-3
  Resistance level: 0.3 µg/mL
[1]; strain SGR-4
  Resistance level: 0.2 µg/mL
[1]; strain SGR-5
  Resistance level: 0.5 µg/mL
[1]; strain SGR-6
  Resistance level: 0.3 µg/mL
[2]; [6]
  Resistance level: 0.8 µg/mL
[2]; strain BG-1 (gen)
  Resistance level: 4.0 µg/mL
[2]; strain BG-2 (gen)
  Resistance level: 4.0 µg/mL
[2]; strain BG-3 (gen)
  Resistance level: 4.5 µg/mL
[2]; strain BGR-1 (gen-rif)
  Resistance level: 4.5 µg/mL
[2]; strain BGR-2 (gen-rif)
  Resistance level: 5.0 µg/mL
[2]; strain BGR-3 (gen-rif)
  Resistance level: 5.0 µg/mL
[3]; S-1 strain
  Concentration at which growth was inhibited completely: 0.5 μg per ml
[3]; [7]
  Concentration at which growth was inhibited completely: 0.1 μg per ml
[3]; strain S-1 (str)
  MIC: Gentamicin(0.1) μg/ml
[3]; strain S. coelicolor 1147 (wild type)
  MIC: Gentamicin (0.1) μg/ml

## CO[C@H]1/C=C/O[C@@]2(C)Oc3c(C)c(O)c4c(O)c(c(/C=N/N5CCN(C)CC5)c(O)c4c3C2=O)NC(=O)/C(C)=C\C=C\[C@H](C)[C@H](O)[C@@H](C)[C@@H](O)[C@@H](C)[C@H](OC(C)=O)[C@@H]1C [Rifampicin, rifampicin]
[1]; S. coelicolor strain SR-1
  Resistance level: 50 µg/mL
[1]; S. coelicolor strain SR-2
  Resistance level: 150 µg/mL
[1]; S. coelicolor strain SR-3
  Resistance level: 400 µg/mL
[1]; strain 1147 (wild type)
  Resistance level: 10 µg/mL
[1]; strain R-1
  Resistance level: 400 µg/mL
[1]; strain R-2
  Resistance level: 400 µg/mL
[1]; strain R-3
  Resistance level: 400 µg/mL
[1]; strain SGR-1
  Resistance level: 400 µg/mL
[1]; strain SGR-2
  Resistance level: 400 µg/mL
[1]; strain SGR-3
  Resistance level: 300 µg/mL
[1]; strain SGR-4
  Resistance level: 400 µg/mL
[1]; strain SGR-5
  Resistance level: 400 µg/mL
[1]; strain SGR-6
  Resistance level: 300 µg/mL
[1]; strain SR-4
  Resistance level: 400 µg/mL
[1]; strain SR-5
  Resistance level: 400 µg/mL
[1]; strain SR-6
  Resistance level: 400 µg/mL
[1]; strain SR-7
  Resistance level: 400 µg/mL
[2]; [6]
  Resistance level: 1.0 µg/mL
[2]; strain BG-1 (gen)
  Resistance level: 1.0 µg/mL
[2]; strain BG-2 (gen)
  Resistance level: 0.8 µg/mL
[2]; strain BG-3 (gen)
  Resistance level: 1.0 µg/mL
[2]; strain BGR-1 (gen-rif)
  Resistance level: 100 µg/mL
[2]; strain BGR-2 (gen-rif)
  Resistance level: 120 µg/mL
[2]; strain BGR-3 (gen-rif)
  Resistance level: 150 µg/mL
[3]; S-1 strain
  Concentration at which growth was inhibited completely: 10 μg per ml
[3]; SG-1 strain
  Concentration at which growth was inhibited completely: 10 μg per ml
[3]; SG-2 strain
  Concentration at which growth was inhibited completely: 10 μg per ml
[3]; [8]
  MIC: 10 mg/L
[3]; [7]
  Concentration at which growth was inhibited completely: 10 μg per ml
[3]; strain S-1 (str)
  MIC: Rifampicin(10) μg/ml
[3]; strain SG-1 (str-gen)
  MIC: Rifampicin(10) μg/ml
[3]; strain SG-2 (str-gen)
  MIC: Rifampicin(10) μg/ml
[4]; S. lividans strain SR-1 (rif)
  Resistance level: 200 µg/mL
[4]; S. lividans strain SR-2 (rif)
  Resistance level: 400 µg/mL
[4]; S. lividans strain SR-3 (rif)
  Resistance level: 400 µg/mL
[4]; [9]
  Resistance level: 10 µg/mL
[4]; strain SRS-1 (rif-str)
  Resistance level: 400 µg/mL
[4]; strain SRS-2 (rif-str)
  Resistance level: 350 µg/mL
[4]; strain SRS-3 (rif-str)
  Resistance level: 400 µg/mL

## C[C@H]1O[C@H](CC(=O)O)Cc2c1c(O)c1c(O)c(-c3cc(=O)c4c(=O)c5c(c(=O)c=4c3=O)[C@@H](C)O[C@H](CC(=O)O)C5)cc(O)c1c2O [actinorhodin]
[5]; in alcohol, acetic acid, acetone
  Solubility: slightly soluble
[5]; in aq acid
  Solubility: Practically insol
[5]; in aq alkali (bright blue color)
  Solubility: sol
[5]; in piperidine, tetrahydrofuran, dioxane, phenol
  Solubility: Soluble

## CN[C@@H]1[C@@H](O)[C@@H](O[C@@H]2[C@@H](O)[C@H](O[C@H]3O[C@H]([C@@H](C)O)[C@@H](O)[C@H](O)[C@H]3N)[C@@H](N)C[C@H]2N)OC[C@]1(C)O [Geneticin, geneticin]
[1]; strain 1147 (wild type)
  Resistance level: 0.2 µg/mL
[1]; strain SGe-1
  Resistance level: 0.5 µg/mL
[1]; strain SGe-2
  Resistance level: 1 µg/mL
[1]; strain SGe-3
  Resistance level: 1 µg/mL
[3]; S-1 strain
  Concentration at which growth was inhibited completely: 0.5 μg per ml
[3]; Streptomyces coelicolor, 48 h, strain S-1 (str), read-out: MIC
  MIC: 0.2 mg/L

## [H]/N=C(/N)N[C@H]1[C@H](O)[C@@H](O)[C@H](O[C@@H]2O[C@@H](C)[C@](O)(C=O)[C@H]2O[C@@H]2O[C@@H](CO)[C@H](O)[C@@H](O)[C@@H]2NC)[C@@H](N/C(N)=N\[H])[C@@H]1O [Streptomycin, streptomycin]
[1]; S. coelicolor strain SR-1
  Resistance level: 50 µg/mL
[1]; S. coelicolor strain SR-2
  Resistance level: 50 µg/mL
[1]; S. coelicolor strain SR-3
  Resistance level: 50 µg/mL
[1]; strain 1147 (wild type)
  Resistance level: 1 µg/mL
[1]; strain S-1
  Resistance level: 100 µg/mL
[1]; strain S-2
  Resistance level: 5 µg/mL
[1]; strain S-3
  Resistance level: 10 µg/mL
[1]; strain SG-1
  Resistance level: 100 µg/mL
[1]; strain SG-2
  Resistance level: 100 µg/mL
[1]; strain SG-3
  Resistance level: 100 µg/mL
[1]; strain SGR-1
  Resistance level: 100 µg/mL
[1]; strain SGR-2
  Resistance level: 100 µg/mL
[1]; strain SGR-3
  Resistance level: 50 µg/mL
[1]; strain SGR-4
  Resistance level: 50 µg/mL
[1]; strain SGR-5
  Resistance level: 50 µg/mL
[1]; strain SGR-6
  Resistance level: 100 µg/mL
[1]; strain SGe-1
  Resistance level: 100 µg/mL
[1]; strain SGe-2
  Resistance level: 100 µg/mL
[1]; strain SGe-3
  Resistance level: 100 µg/mL
[1]; strain SR-4
  Resistance level: 100 µg/mL
[1]; strain SR-5
  Resistance level: 100 µg/mL
[1]; strain SR-6
  Resistance level: 50 µg/mL
[1]; strain SR-7
  Resistance level: 50 µg/mL
[3]; [8]
  MIC: 1 mg/L
[3]; [7]
  Concentration at which growth was inhibited completely: 1 μg per ml
[4]; S. lividans strain SR-1 (rif)
  Resistance level: 1.0 µg/mL
[4]; S. lividans strain SR-2 (rif)
  Resistance level: 0.8 µg/mL
[4]; S. lividans strain SR-3 (rif)
  Resistance level: 1.0 µg/mL
[4]; [9]
  Resistance level: 1.0 µg/mL
[4]; strain SRS-1 (rif-str)
  Resistance level: 50 µg/mL
[4]; strain SRS-2 (rif-str)
  Resistance level: 120 µg/mL
[4]; strain SRS-3 (rif-str)
  Resistance level: 100 µg/mL
